Read-outs that look alike come from different tables or passages of the source.
Key:
[1] = pKa measurement of unformulated amine lipid (fluorescence, method of Jayaraman et al.); assay type: physicochemical; details: 100 μM in 0.1 M phosphate buffer pH 4.5-9.0
Procedure: The pKa of each amine lipid was determined according to the method in Jayaraman, et al. (Angewandte Chemie, 2012) with the following adaptations. […] Lipid was diluted to 100 μM in 0.1 M phosphate buffer (Boston Bioproducts) where the pH ranged from 4.5-9.0. Fluorescence intensity was measured using excitation and emission wavelengths of 321 nm and 448 nm.

[2] = RNA encapsulation efficiency of LNP (Ribogreen fluorescence assay); assay type: physicochemical
How it was run: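 LNP samples diluted in 1× TE buffer with 0.2% Triton X-100 (total RNA) or without it (free RNA), stained with RiboGreen for ~10 min at room temperature in the dark, read at ex 488/em 525 nm against RNA standard curves. Encapsulation efficiency = (Total RNA − Free RNA)/Total RNA.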

B2M = B2M editing in mouse liver by NGS after i.v. LNP delivery of Cas9 mRNA and sgRNA; assay type: in vivo; details: for Editing (%) B2M liver: 6 days post-dose, G650 1:1
TTR = test: Transthyretin (TTR) ELISA analysis of mouse serum after LNP dosing; assay type: in vivo; details: for response vs control in vivo at 0.1 mg/kg / response vs control in vivo at 0.03 mg/kg: Mus musculus, iv, read-out: Serum TTR % TSS
How it was run: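 Female CD-1 mice aged 6-10 weeks were grouped by body weight and given LNPs by lateral tail vein injection (0.2 mL per animal, about 10 mL per kilogram). Mice were bled by cardiac puncture under isoflurane into serum separator tubes. Serum was diluted 10,000-fold for the 0.1 mpk dose, and total TTR was quantified with a Mouse Prealbumin (Transthyretin) ELISA Kit following the kit directions.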

[3] = Example 55: 0.1 mpk i.v., 7 days post-dose, G282 1:1

pKa [1]: 6.3
Encapsulation (%) ([2]; Table 3, Example 52: LNP, Cas9 mRNA + sgRNA (G650) 1:1 w/w, N:P 6.0, Compound 19 50/9/38/3, others 50/10/38.5/1.5): 98%
Encapsulation (%) ([2]; Table 5, Example 53: LNP with gRNA G282 (TTR), 1:1 w/w, N:P 6.0): 97%
Encapsulation (%) ([2]; Table 5, Example 53: LNP with gRNA G650 (B2M), 1:1 w/w, N:P 6.0): 98%
Encapsulation (%) ([2]; Table 10, Example 55: LNP, G282 (TTR) 1:1 w/w, N:P 6.0): 97%
Encapsulation (%) ([2]; Table 14, Example 58: LNP, G282 (TTR) 1:1 w/w, N:P 6.0): 97%
Encapsulation (%) ([2]; Table 16, Example 59: LNP, G282 (TTR) 1:1 w/w, N:P 6.0): 96%
Encapsulation (%) ([2]; Table 18, Example 60: LNP, G502 (TTR), sgRNA:Cas9 mRNA 1:2 w/w, N:P 6.0): 97%
Encapsulation (%) ([2]; Table 22, Example 62: LNP, G282 (TTR), sgRNA:Cas9 mRNA 1:2 w/w, N:P 6.0): 97%
Encapsulation (%) ([2]; Table 24, Example 63: LNP, G282 (TTR) 1:1 w/w, NP 6.0): 98%
SMILES: CCCCCCCCCOC(=O)CCCCCCCN(CCO)CCCCCCCC(OCCCCCCCC)OCCCCCCCC [Compound 1, nonyl 8-((8,8-bis(octyloxy)octyl)(2-hydroxyethyl)amino octanoate]
Editing (%) of B2M in mouse liver (B2M; Example 52: LNP single dose 0.1 mg/kg i.v., CD-1 female mice, sgRNA G650:Cas9 mRNA 1:1, NGS): 36.8%
Editing (%) B2M liver (B2M; Example 53: 0.1 mpk i.v., CD-1 female mice): 41.0%
Editing (%) B2M liver (B2M; Example 53: 0.3 mpk i.v., CD-1 female mice): 62.9%
B2M editing in the liver compared with Compound 19 (B2M; Example 53 text: 0.1 and 0.3 mpk): higher B2M editing in the liver than Compound 19 at each dose
dose response of B2M editing in liver (B2M; Example 53 text: 0.1 mpk vs 0.3 mpk): increased editing of B2M in liver significantly between the 0.1 mpk and 0.3 mpk doses
TSS (serum TTR % TSS) (TTR; Example 53: 0.1 mpk i.v., 6 days post-dose, G282 1:1): 5 % TSS
Serum TTR (TTR; Example 53: 0.1 mpk i.v., CD-1 female mice, 6 days post-dose, G282 1:1): 19 µg/mL
TSS (serum TTR % TSS) (TTR; Example 53: 0.3 mpk i.v., 6 days post-dose, G282 1:1): 5 % TSS
Serum TTR (TTR; Example 53: 0.3 mpk i.v., CD-1 female mice, 6 days post-dose, G282 1:1): 5 µg/mL
Serum TTR (TTR; [3]): 391 µg/mL
Serum TTR (% TSS) (TTR; [3]): 34 % TSS
Serum TTR (TTR; Example 58: 0.1 mpk i.v., 6 days post-dose, G282 1:1): 656 µg/mL
Serum TTR (TTR; Example 59: 0.1 mpk i.v., 7 days post-dose, G282 1:1): 327 µg/mL
Serum TTR (TTR; Example 60: 0.1 mpk i.v., 6 days post-dose, G502 1:2): 353 µg/mL
Serum TTR (TTR; Example 62: 0.03 mpk i.v., 7 days post-dose, G282 1:2): 594 µg/mL
Serum TTR (TTR; Example 62: 0.1 mpk i.v., 7 days post-dose, G282 1:2): 241 µg/mL
Serum TTR (TTR; Example 63: 0.03 mpk i.v., 7 days post-dose, G282 1:1): 741.05 µg/mL
Serum TTR (TTR; Example 63: 0.1 mpk i.v., 7 days post-dose, G282 1:1): 351.76 µg/mL
response vs control in vivo at 0.1 mg/kg (TTR; 144 h, Example 58: 0.1 mpk i.v., 6 days post-dose, G282 1:1): 66%
response vs control in vivo at 0.1 mg/kg (TTR; 144 h, Example 60: 0.1 mpk i.v., 6 days post-dose, G502 1:2): 25%
response vs control in vivo at 0.1 mg/kg (TTR; 168 h, Example 59: 0.1 mpk i.v., 7 days post-dose, G282 1:1): 35%
response vs control in vivo at 0.03 mg/kg (TTR; 168 h, Example 62: 0.03 mpk i.v., 7 days post-dose, G282 1:2): 93%
response vs control in vivo at 0.1 mg/kg (TTR; 168 h, Example 62: 0.1 mpk i.v., 7 days post-dose, G282 1:2): 38%
response vs control in vivo at 0.03 mg/kg (TTR; 168 h, Example 63: 0.03 mpk i.v., 7 days post-dose, G282 1:1): 91.8%
response vs control in vivo at 0.1 mg/kg (TTR; 168 h, Example 63: 0.1 mpk i.v., 7 days post-dose, G282 1:1): 43.6%
